Experimental data: patent US20200109362A1 (priority 2016, published 2020)
Entries after “also recorded” stand apart in the source; their conditions may differ.

What was measured:
Assay type in all cases: cell-based, human
[1] = system: TK6 cells
[2] = system: TK6+MGMT cells; assay: ToxChip (μCC) microcolony toxicity assay, TK6+MGMT cells; settings: TK6+MGMT vs TK6
[3] = system: MCL-5 cells; assay: ToxChip (μCC) microcolony toxicity assay, MCL-5 cells

## O=NN(CCCl)C(=O)NCCCl [BCNU, N,N′-bis (2-chloroethyl)-N-nitrosourea]
[1]; TK6 cells, 10 μM BCNU
  PF value as % of the control PF: 96%
  PFF (total PF fluorescence) as % of the control PFF: 53%
[1]; TK6 cells, BCNU 1 hour, up to 72 hours growth
  microcolony growth (F/M distribution) after treatment: less able to form larger colonies; also recorded: inhibits growth of colonies
[2]; PFF method
  difference in survival between TK6 and TK6+MGMT when challenged: approximately 1 log
[2]; μCC, treatment 1 hour at 37° C.
  difference in sensitivity between TK6 and TK6+MGMT: significant difference in sensitivity; also recorded: MGMT significantly rescues TK6 cells

## CC(=O)N1CCN(c2ccc(OCC3COC(Cn4ccnc4)(c4ccc(Cl)cc4Cl)O3)cc2)CC1 (stereo not drawn) [KET, ketoconazole]
[3]
  rescue of MCL-5 cells from AFB1 toxicity by co-treatment: significant rescue; also recorded: significantly rescues

## aflatoxin B1 [AFB1]
[1]
  toxicity to TK6 cells: relatively unaffected
[3]
  difference in sensitivity between TK6 and MCL-5 cells: more than 2 log
  sensitivity of MCL-5 cells compared with TK6 cells: significantly more sensitive
